From US11866450B2, “Modulators of Cystic Fibrosis Transmembrane Conductance regulator, pharmaceutical compositions, methods of treatment, and process for making the modulators” (priority 2018, dated 2024)
Where “and” joins values, the source holds several entries; their conditions need not be identical. Equal entries are not always repeated. Where two headings read alike, the source gives them in different places.

Assays:
[1] = snar bond, DMSO
[2] = target: CFTR-mediated chloride transport (Homo sapiens, UniProt P13569); assay type: cell-based; conditions: enteroid cells incubated with test compound 18-24 hours, acute 10 μM forskolin and 300 nM Compound III; for Max. Activity: % of chloride transport with 3 μM Compound A, 3 μM Compound II and 300 nM acute Compound III triple combination control
Outline: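 Human intestinal enteroid cells incubated with compound 18–24 h at 37° C., then membrane potential dye (FLIPR) read 15 min after chloride-free stimulation with 10 μM forskolin, 100 μM IBMX and 300 nM Compound III. AUC expressed as % of triple-combination control (3 μM Compound A, 3 μM Compound II, 300 nM Compound III).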

[3] = from Cc1c(S(=O)(=O)NC(=O)c2ccc(-n3ccc(OCC(C)(C)C(F)(F)F)n3)nc2Cl)cnn1CCCC1CNC(C)(C)C1, 14-membered ring, K2CO3/CsF/3A MS, 25.9 mM, 150.0 °C

Chain of CFTR-mediated chloride transport (P13569 whole entry, looked up): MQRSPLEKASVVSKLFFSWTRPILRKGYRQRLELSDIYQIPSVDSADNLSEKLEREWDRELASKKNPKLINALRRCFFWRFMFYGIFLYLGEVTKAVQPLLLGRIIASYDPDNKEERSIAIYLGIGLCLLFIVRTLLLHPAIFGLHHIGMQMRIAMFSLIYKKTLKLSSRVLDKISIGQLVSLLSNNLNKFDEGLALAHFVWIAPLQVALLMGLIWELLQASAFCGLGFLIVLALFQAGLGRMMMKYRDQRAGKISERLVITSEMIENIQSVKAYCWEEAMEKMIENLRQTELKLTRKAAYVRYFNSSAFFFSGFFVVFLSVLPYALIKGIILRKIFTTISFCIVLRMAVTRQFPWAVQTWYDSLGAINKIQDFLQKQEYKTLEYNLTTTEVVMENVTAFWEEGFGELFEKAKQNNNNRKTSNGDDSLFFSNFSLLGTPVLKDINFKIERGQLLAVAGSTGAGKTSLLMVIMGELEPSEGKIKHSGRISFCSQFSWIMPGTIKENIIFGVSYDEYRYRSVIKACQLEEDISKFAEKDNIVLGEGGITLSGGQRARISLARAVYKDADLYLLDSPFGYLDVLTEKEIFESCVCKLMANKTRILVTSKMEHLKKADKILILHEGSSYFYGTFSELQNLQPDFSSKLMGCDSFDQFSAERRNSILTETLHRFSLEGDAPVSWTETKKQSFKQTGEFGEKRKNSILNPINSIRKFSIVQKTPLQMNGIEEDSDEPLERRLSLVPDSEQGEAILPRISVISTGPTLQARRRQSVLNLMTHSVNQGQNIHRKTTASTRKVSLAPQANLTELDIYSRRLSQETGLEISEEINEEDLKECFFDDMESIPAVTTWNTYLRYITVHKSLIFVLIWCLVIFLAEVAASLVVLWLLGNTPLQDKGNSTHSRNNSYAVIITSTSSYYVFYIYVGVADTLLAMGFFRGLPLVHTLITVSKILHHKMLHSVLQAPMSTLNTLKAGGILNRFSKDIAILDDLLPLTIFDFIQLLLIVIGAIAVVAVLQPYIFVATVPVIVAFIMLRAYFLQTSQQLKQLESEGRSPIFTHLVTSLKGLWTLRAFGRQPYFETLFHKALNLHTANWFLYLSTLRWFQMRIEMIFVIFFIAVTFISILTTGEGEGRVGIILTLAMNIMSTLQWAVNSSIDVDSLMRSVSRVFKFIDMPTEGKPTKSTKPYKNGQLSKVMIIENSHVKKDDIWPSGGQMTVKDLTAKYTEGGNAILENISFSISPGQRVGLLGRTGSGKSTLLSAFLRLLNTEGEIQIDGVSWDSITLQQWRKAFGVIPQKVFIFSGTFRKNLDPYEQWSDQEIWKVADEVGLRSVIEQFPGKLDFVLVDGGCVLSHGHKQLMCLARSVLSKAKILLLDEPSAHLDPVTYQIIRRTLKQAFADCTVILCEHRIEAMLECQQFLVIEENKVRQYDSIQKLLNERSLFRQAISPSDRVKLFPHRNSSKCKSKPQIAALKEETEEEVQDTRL

Cc1nn2cc1S(=O)(=O)NC(=O)c1ccc(-n3ccc(OCC(C)(C)C(F)(F)F)n3)nc1N1CC(CCC2)CC1(C)C (centres unmarked) [Compound 281, 12,20,20-trimethyl-4-[3-(3,3,3-trifluoro-2,2-dimethylpropoxy)-1H-pyrazol-1-yl]-10λ^6-thia-1,3,9,13,14-pentaazatetracyclo[16.2.1.111,14.02,7]docosa-2,4,6,11(22),12-pentaene-8,10,10-trione]
ring closure, yield after HPLC ([1]; from Cc1nn(CCCC2CNC(C)(C)C2)cc1S(=O)(=O)NC(=O)c1ccc(-n2ccc(OCC(C)(C)C(F)(F)F)n2)nc1Cl, 14-membered ring, K2CO3/CsF/3A MS, 25.9 mM, 150.0 °C): 17%
EC50 [2]: 1 to 3 µM
Max. Activity [2]: + (+ is <30%)

CC(C)(C)COc1ccn(-c2ccc3c(n2)N2CC(CCNc4cccc(n4)S(=O)(=O)NC3=O)CC2(C)C)n1 (centres unmarked) [Compound 1, 11-[3-(2,2-dimethylpropoxy)-1H-pyrazol-1-yl]-7,7-dimethyl-17λ^6-thia-2,8,10,16,22-pentaazatetracyclo[16.3.1.15,8.09,14]tricosa-1(21),9(14),10,12,18(22),19-hexaene-15,17,17-trione]
ring closure, yield after HPLC ([1]; from CC(C)(C)COc1ccn(-c2ccc(C(=O)NS(=O)(=O)c3cccc(NCCC4CNC(C)(C)C4)n3)c(Cl)n2)n1, 14-membered ring, K2CO3, 155.0 °C, 62.0 h, 2 steps): 10%
EC50 [2]: < 1 µM
Max. Activity [2]: +++ (+++ is >60%)

Cc1ccc2nc1NCCCC1CN(c3nc(-n4ccc(OCCC5(C(F)(F)F)CC5)n4)ccc3C(=O)NS2(=O)=O)C(C)(C)C1 (centres unmarked)
ring closure, yield after HPLC ([1]; from Cc1ccc(S(=O)(=O)NC(=O)c2ccc(-n3ccc(OCCC4(C(F)(F)F)CC4)n3)nc2Cl)nc1NCCCC1CNC(C)(C)C1, 15-membered ring, K2CO3/CsF/4A MS, 61.3 mM, 140.0 °C, 16.0 h): 42%

CC1(C)CC2CCCNc3ccnc(c3)S(=O)(=O)NC(=O)c3ccc(-n4ccc(OCCC5(C(F)(F)F)CC5)n4)nc3N1C2 (centres unmarked) [Compound 23, 12,12-dimethyl-8-(3-{2-[1-(trifluoromethyl)cyclopropyl]ethoxy}-1H-pyrazol-1-yl)-2λ^6-thia-3,9,11,18,22-pentaazatetracyclo[17.3.1.111,14.05,10]tetracosa-1(23),5(10),6,8,19,21-hexaene-2,2,4-trione]
ring closure, yield after HPLC ([1]; from CC(C)(C)OC(=O)N1CC(CCCNc2ccnc(S(=O)(=O)NC(=O)c3ccc(-n4ccc(OCCC5(C(F)(F)F)CC5)n4)nc3Cl)c2)CC1(C)C, 15-membered ring, K2CO3/CsF, 13.0 mM, 150.0 °C, 2 steps): 9%
EC50 [2]: > 3 µM
Max. Activity [2]: + (+ is <30%)

Cc1cn2nc1S(=O)(=O)NC(=O)c1ccc(-n3ccc(OCCC(C4CC4)C4CC4)n3)nc1N1CC(CCC2)CC1(C)C (centres unmarked)
ring closure, yield after HPLC ([1]; from Cc1cn(CCCC2CNC(C)(C)C2)nc1S(=O)(=O)NC(=O)c1ccc(-n2ccc(OCCC(C3CC3)C3CC3)n2)nc1Cl, 14-membered ring, K2CO3/CsF/3A MS, 58.8 mM, 150.0 °C): 38%

Cc1c2cnn1CCCC1CN(c3nc(-n4ccc(OCC(C)(C)C(F)(F)F)n4)ccc3C(=O)NS2(=O)=O)C(C)(C)C1 (single isomer, unassigned; atropisomer 2)
ring closure, yield after HPLC [1, 3]: 4%

Cc1c2cnn1CCCCC1CN(c3nc(-n4ccc(OCCC5(C(F)(F)F)CC5)n4)ccc3C(=O)NS2(=O)=O)C(C)(C)C1 (centres unmarked)
ring closure, yield after HPLC ([1]; from Cc1c(S(=O)(=O)NC(=O)c2ccc(-n3ccc(OCCC4(C(F)(F)F)CC4)n3)nc2Cl)cnn1CCCCC1CNC(C)(C)C1, 15-membered ring, K2CO3/CsF, 130.1 mM, 150.0 °C): 13%

CC1(C)CC2CCNc3cccc(n3)S(=O)(=O)NC(=O)c3ccc(-n4ccc(OCCCC5(C(F)(F)F)CC5)n4)nc3N1C2 (centres unmarked)
ring closure, yield after HPLC ([1]; from CC1(C)CC(CCNc2cccc(S(=O)(=O)NC(=O)c3ccc(-n4ccc(OCCCC5(C(F)(F)F)CC5)n4)nc3Cl)n2)CN1, 14-membered ring, K2CO3/CsF/3A MS, 128.0 mM, 150.0 °C): 43%

[2H]C([2H])(Oc1ccn(-c2ccc3c(n2)N2C[C@@H](CCCNc4nc(ccc4OCc4ccccc4)S(=O)(=O)NC3=O)CC2(C)C)n1)C([2H])([2H])C1C2(CC2)C12CC2
ring closure, yield after HPLC ([1]; from [2H]C([2H])(Oc1ccn(-c2ccc(C(=O)NS(=O)(=O)c3ccc(OCc4ccccc4)c(NCCC[C@@H]4CN(C(=O)OC(C)(C)C)C(C)(C)C4)n3)c(Cl)n2)n1)C([2H])([2H])C1C2(CC2)C12CC2, 15-membered ring, K2CO3/4A MS, 100.9 mM, 140.0 °C, 2 steps): 44%

CC1(C)CC2CCNc3cccc(n3)S(=O)(=O)NC(=O)c3ccc(-n4ccc(OCCC(C5CC5)C5CC5)n4)nc3N1C2 (single isomer, unassigned; enantiomer 2)
ring closure, yield after HPLC ([1]; from CC1(C)CC(CCNc2cccc(S(=O)(=O)NC(=O)c3ccc(-n4ccc(OCCC(C5CC5)C5CC5)n4)nc3Cl)n2)CN1, 14-membered ring, K2CO3/CsF/3A MS, 22.7 mM, 150.0 °C): 29%

CC1(C)CC2CCCn3ccc(n3)S(=O)(=O)NC(=O)c3ccc(Cl)nc3N1C2 (centres unmarked)
ring closure, yield after HPLC ([1]; from CC(C)(C)OC(=O)N1CC(CCCn2nccc2S(=O)(=O)NC(=O)c2ccc(Cl)nc2Cl)CC1(C)C, 14-membered ring, K2CO3/CsF/3A MS, 89.2 mM, 140.0 °C, 2 steps): 12%

CC1(C)CCC2CCCNc3cccc(n3)S(=O)(=O)NC(=O)c3ccc(Cl)nc3N21 (centres unmarked)
ring closure, yield after HPLC ([1]; from CC1(C)CCC(CCCNc2cccc(S(=O)(=O)NC(=O)c3ccc(Cl)nc3Cl)n2)N1, 14-membered ring, K2CO3/CsF/4A MS, 63.7 mM, 150.0 °C): 24%

Cc1c2cnn1CCC[C@@H]1CN(c3nc(-n4ccc(OCCC5(C(F)(F)F)CC5)n4)ccc3C(=O)NS2(=O)=O)C(C)(C)C1
ring closure, yield after HPLC ([1]; from Cc1c(S(=O)(=O)NC(=O)c2ccc(-n3ccc(OCCC4(C(F)(F)F)CC4)n3)nc2Cl)cnn1CCC[C@@H]1CNC(C)(C)C1, 14-membered ring, K2CO3/CsF, 37.8 mM, 160.0 °C): 6% and 16%

CC1(C)CC2CCNc3cccc(n3)S(=O)(=O)NC(=O)c3ccc(-n4ccc(OCCC(C5CC5)C5CC5)n4)nc3N1C2 (single isomer, unassigned; enantiomer 1)
ring closure, yield after HPLC ([1]; from CC1(C)CC(CCNc2cccc(S(=O)(=O)NC(=O)c3ccc(-n4ccc(OCCC(C5CC5)C5CC5)n4)nc3Cl)n2)CN1, 14-membered ring, K2CO3/CsF/3A MS, 24.9 mM, 150.0 °C): 41%

CC1(C)CCC2CCCOc3cccc(c3)S(=O)(=O)NC(=O)c3ccc(-n4ccc(OCCC5(C(F)(F)F)CC5)n4)nc3N21 (centres unmarked)
ring closure, yield after HPLC ([1]; from CC(C)(C)OC(=O)N1C(CCCOc2cccc(S(=O)(=O)NC(=O)c3ccc(-n4ccc(OCCC5(C(F)(F)F)CC5)n4)nc3Cl)c2)CCC1(C)C, 14-membered ring, K2CO3, then CsF, 64.2 mM, 170.0 °C, 2 steps): 4%

CC1(C)CC2CCCn3nccc3S(=O)(=O)NC(=O)c3ccc(Cl)nc3N1C2 (centres unmarked)
ring closure, yield after HPLC ([1]; from tert-butyl 4-[3-[3-1(2,6-dichloropyridine-3-carbonyl)sulfamoyl]pyrazol-1-yl]propyl]-2,2-dimethyl-pyrrolidine-1-carboxylate, TFA (Boc off), CsF/K2CO3/3A MS, 89.2 mM, 140.0 °C, 2 steps): 4%

CC1(C)CC2CCCNc3cccc(n3)S(=O)(=O)NC(=O)c3ccc(Cl)nc3N1C2 (centres unmarked)
ring closure, yield after HPLC ([1]; from CC1(C)CC(CCCNc2cccc(S(=O)(=O)NC(=O)c3ccc(Cl)nc3Cl)n2)CN1, 15-membered ring, K2CO3/CsF/3A MS, 82.2 mM, 140.0 °C): 38%

Cc1c2cnn1CCCC1CN(c3nc(-n4ccc(OCC(C)(C)C(F)(F)F)n4)ccc3C(=O)NS2(=O)=O)C(C)(C)C1 (single isomer, unassigned; atropisomer 1)
ring closure, yield after HPLC [1, 3]: 10%

CC1(C)C[C@H]2CCCOc3cccc(n3)S(=O)(=O)NC(=O)c3ccc(-n4ccc(OCCC5(C(F)(F)F)CC5)n4)nc3N1C2 (single isomer, unassigned) [Compound 48, 12,12-dimethyl-8-(3-{2-[1-(trifluoromethyl)cyclopropyl]ethoxy}-1H-pyrazol-1-yl)-18-oxa-2λ^6-thia-3,9,11,23-tetraazatetracyclo[17.3.1.111,14.05,10]tetracosa-1(22),5,7,9,19(23),20-hexaene-2,2,4-trione]
EC50 [2]: > 3 µM
Max. Activity [2]: + (+ is <30%)

CC1(C)C[C@@H]2CN1c1nc(-n3ccc(OCCC4(C(F)(F)F)CC4)n3)ccc1C(=O)NS(=O)(=O)c1ccn(n1)CCO2 (single isomer, unassigned) [Compound 167, 20,20-dimethyl-4-(3-{2-[1-(trifluoromethyl)cyclopropyl]ethoxy}-1H-pyrazol-1-yl)-17-oxa-10λ^6-thia-1,3,9,14,22-pentaazatetracyclo[16.2.1.111,14.02,7]docosa-2(7),3,5,11(22),12-pentaene-8,10,10-trione]
EC50 [2]: < 1 µM
Max. Activity [2]: ++ (++ is 30-60%)

CC1(C)C[C@H]2CCCCOc3ccc(cn3)S(=O)(=O)NC(=O)c3ccc(-n4ccc(OCCC5(C(F)(F)F)CC5)n4)nc3N1C2 (single isomer, unassigned) [Compound 103, 12,12-dimethyl-8-(3-{2-[1-(trifluoromethyl)cyclopropyl]ethoxy}-1H-pyrazol-1-yl)-19-oxa-2λ^6-thia-3,9,11,21-tetraazatetracyclo[18.2.2.111,14.05,10]pentacosa-1(23),5,7,9,20(24),21-hexaene-2,2,4-trione]
EC50 [2]: < 1 µM
Max. Activity [2]: ++ (++ is 30-60%)

CC(C)(C)CCC[C@H]1CCN(c2ccc3c(n2)N2C[C@@H](CCCNc4cccc(n4)S(=O)(=O)NC3=O)CC2(C)C)C1=O (single isomer, unassigned) [Compound 145]
EC50 [2]: < 1 µM
Max. Activity [2]: +++ (+++ is >60%)
